Measured values reported in patent US20190338294A1, “ORTHOGONAL TRANSCRIPTIONAL SWITCHES DERIVED FROM TET REPRESSOR HOMOLOGS FOR SACCHAROMYCES CEREVISIAE” (The Johns Hopkins University, priority 2016, published 2019).
Where two headings read alike, the source gives them in different places.

Assays:
ethTA(=NLS-ethR-VP16) = assay type: cell-based, Mycobacterium tuberculosis; details: 2-Benzyl acetate 0.01%, On w/o drug
lmrTAv2 (=NLS-lmrA-VP16) = assay: Lmr-Offv2 switch candidate, GFP reporter (strain lmr/yxaG-lmrTAv2); assay type: cell-based, Bacillus subtilis; details: Quercetin 0.13 μM, Fisetin 0.19 μM, Coumesterol 0.22 μM, On w/o drug
phlTA (=phlF-VP16) [1] = assay: DAPG-Off switch, GFP reporter, flow cytometry (strain DapG-TA); assay type: cell-based, Pseudomonas; details: for GFP fluorescence of DapG-TA: compared with BY4741 (background); for intensity of reporter GFP fluorescence, DAPG-Off switch: SC with 25-μM doxycycline, 25-μM D-camphor, 48-μM DAPG or 150-μM p-cumate
BY4741 [2] = assay: Effects of DAPG on plating efficiency of BY4741; assay type: cell-based, Saccharomyces cerevisiae; details: 2 days
Experimental: FIG. 2 is a bar graph showing the effects of DAPG on plating efficiency of BY4741. Yeast strain BY4741 overnight culture in SC medium was diluted 25,000-fold, and 100 μl was spread on SC, and SC containing 24-μM or 48 μM of DAPG. The number of colonies formed was counted after 2 days. The values were means and standard deviations calculated from three experiments.

cymTA(=NLS-cymR-VP16) = biological target: T1, cymTA(=NLS-cymR-VP16) (Pseudomonas putida, UniProt O33453); assay: Cumate-Off switch, GFP reporter (strain cymG-TA); assay type: cell-based; details: SC with 25-μM doxycycline, 25-μM D-camphor, 48-μM DAPG or 150-μM p-cumate
T1 construct: (cymTA in pSIB470); expressed in transfected cells; host or cells: Saccharomyces cerevisiae BY4741, integrated pSIB470 (strain cymG-TA)
T1 sequence (O33453 other isoform, or with tags, fused parts or gaps): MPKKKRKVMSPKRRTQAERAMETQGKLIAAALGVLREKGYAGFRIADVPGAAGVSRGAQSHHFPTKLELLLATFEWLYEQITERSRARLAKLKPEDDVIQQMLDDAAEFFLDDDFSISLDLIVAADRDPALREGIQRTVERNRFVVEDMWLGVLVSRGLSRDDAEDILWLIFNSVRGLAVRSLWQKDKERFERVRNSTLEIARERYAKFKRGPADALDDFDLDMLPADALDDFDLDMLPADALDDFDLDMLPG

tTA (=tetR-VP16) = biological target: T2, tTA (=tetR-VP16) (Escherichia coli, UniProt P04483); assay: Tet-Off switch, GFP reporter, orthogonality test; assay type: cell-based; details: SC with 25-μM doxycycline, 25-μM D-camphor, 48-μM DAPG or 150-μM p-cumate
T2 construct: expressed in transfected cells; host or cells: Saccharomyces cerevisiae BY4742, integrated pSIB527 (strain TetOffG)

camTA (=camR-VP16-NLS) = assay: Camphor-Off switch, GFP reporter, orthogonality test; assay type: cell-based, Pseudomonas putida; details: SC with 25-μM doxycycline, 25-μM D-camphor, 48-μM DAPG or 150-μM p-cumate
BY4741 [3] = details: cited from earlier work
phlTA (=phlF-VP16) [4] = assay: DAPG-Off system with ADE2 reporter, spot growth on SC-Ade (strain phlA-TA); details: 24 μM DAPG, 2 days at 30° C.
Experimental: FIG. 3A-FIG. 3D is a series of photographs showing the evaluation of the DAPG-Off system using the ADE2 gene (CDS) as a reporter. Cells were cultured for 2 days at 30° C. in SC (FIG. 3A), SC-Ade (FIG. 3B), SC with 24 μM of DAPG (FIG. 3C), and SC-Ade with 24-DAPG (FIG. 3D). Cells were diluted 10-fold stepwise across each row.
A second reporter gene was used to further assess the performance of the DAPG-Off switch. Here, it was examined whether the ADE2 gene under the control of phlPr complements the adenine-auxotrophy of strain BY11204 in a DAPG-dependent manner (FIG. 3A-FIG. 3D).

NLS-PhlF = assay: DAPG-On system with ADE2 reporter, spot growth on SC-Ade (strains AphOx-2μPhlF); details: 5 μM DAPG; hardly grew on DAPG-free SC-Ade
Experimental: Cells were cultured for 1 day at 30° C. in SC-Leu-His (FIG. 6A), SC-Leu-His-Ade (FIG. 6B), SC-Leu-His with 24-μM DAPG (FIG. 6C), and SC-Leu-His-Ade with 24-μM DAPG (FIG. 6D). The cells were diluted 10-fold stepwise across each row.
The performance of the DAPG-On system was assessed using ADE2 as a reporter in the ade2Δ BY11204 strain.
varTA (=varR-VP16) = assay: Var-Off switch candidate, GFP reporter (strain varG-TA); assay type: cell-based, Streptomyces virginae; details: Virginiamycin S1 2 mM, On w/o drug
icaTA (=icaR-VP16) = assay: IcaR-Off switch candidate, GFP reporter (strain icaG-TA); assay type: cell-based, Staphylococcus epidermidis; details: Gentamicin 10 mM, On w/o drug

## CC(=O)OCc1ccccc1 [2-Benzyl acetate]
ethTA(=NLS-ethR-VP16)
  Expression of GFP with drug: On
ethTA(=NLS-ethR-VP16); listed as 2-benzyl acetate
  Expression of GFP with drug: solid ligand-independent GFP fluorescence

## O=c1oc2cc(O)ccc2c2oc3cc(O)ccc3c12 [Coumesterol]
lmrTAv2 (=NLS-lmrA-VP16)
  Expression of GFP with drug: On

## CC(=O)c1c(O)cc(O)c(C(C)=O)c1O [DAPG, 2,4-diacetylphloroglucinol]
phlTA (=phlF-VP16) [1]; 48 μM DAPG, strain DapG-TA
  culture time over which GFP fluorescence reduced to background levels: 14 h
phlTA (=phlF-VP16) [1]; 12-μM DAPG in SC
  GFP fluorescence of DapG-TA: higher than that of the BY4741 control strain
phlTA (=phlF-VP16) [1]; 48-μM DAPG in SC
  GFP fluorescence of DapG-TA: decreased to the same level as BY4741
phlTA (=phlF-VP16) [1]
  intensity of reporter GFP fluorescence, DAPG-Off switch: decreased to the background level
BY4741 [2]; SC with 24-μM (5-μg/ml) DAPG vs SC without DAPG
  number of colonies formed: little difference
BY4741 [2]; SC with 48-μM (10-μg/ml) DAPG vs SC without DAPG
  number of colonies formed: little difference
cymTA(=NLS-cymR-VP16)
  intensity of reporter GFP fluorescence, Cumate-Off switch: strong GFP signal
tTA (=tetR-VP16)
  intensity of reporter GFP fluorescence, Tet-Off switch: lowered GFP fluorescence
camTA (=camR-VP16-NLS)
  intensity of reporter GFP fluorescence, Camphor-Off switch: lowered GFP fluorescence
BY4741 [3]; 10-μg/ml DAPG (Kwak et al., 2011)
  growth of BY4741: did not inhibit growth
BY4741 [3]; higher concentrations than 10-μg/ml DAPG (Troppens et al., 2013)
  growth of cells of BY4741 background: did show sensitivity
phlTA (=phlF-VP16) [4]
  growth of phlA-TA strain on SC-Ade medium: did not grow
NLS-PhlF
  growth of strains AphOx-2μPhlF on SC-Ade medium: vigorous growth

## O=c1c(O)c(-c2ccc(O)c(O)c2)oc2cc(O)ccc12 [Fisetin]
lmrTAv2 (=NLS-lmrA-VP16)
  Expression of GFP with drug: On

## O=c1c(O)c(-c2ccc(O)c(O)c2)oc2cc(O)cc(O)c12 [Quercetin]
lmrTAv2 (=NLS-lmrA-VP16)
  Expression of GFP with drug: On
lmrTAv2 (=NLS-lmrA-VP16); listed as quercetin
  Expression of GFP with drug: not ligand (quercetin)-responsive

## CC[C@H]1NC(=O)[C@@H](NC(=O)c2ncccc2O)[C@@H](C)OC(=O)[C@H](c2ccccc2)NC(=O)[C@@H]2CC(=O)CCN2C(=O)[C@H](Cc2ccccc2)N(C)C(=O)[C@@H]2CCCN2C1=O [Virginiamycin S1]
varTA (=varR-VP16)
  Expression of GFP with drug: On
varTA (=varR-VP16); listed as virginiamycin S
  Expression of GFP with drug: strong GFP expression

## D-camphor
phlTA (=phlF-VP16) [1]
  intensity of reporter GFP fluorescence, DAPG-Off switch: strong GFP signal
cymTA(=NLS-cymR-VP16)
  intensity of reporter GFP fluorescence, Cumate-Off switch: strong GFP signal
tTA (=tetR-VP16)
  intensity of reporter GFP fluorescence, Tet-Off switch: strong GFP signal
camTA (=camR-VP16-NLS)
  intensity of reporter GFP fluorescence, Camphor-Off switch: decreased to the background level

## Gentamicin
icaTA (=icaR-VP16)
  Expression of GFP with drug: On
icaTA (=icaR-VP16); listed as gentamicin
  Expression of GFP with drug: solid ligand-independent GFP fluorescence
